In US11471430B2, “Sphingosine analogs and use thereof against bacterial lung infections” (Yeda Research and Development Co. Ltd., priority 2018, dated 2022):

What was measured:
[1] = test system: P. aeruginosa strain 762; assay: P. aeruginosa strain 762 killing assay; type: cell-based; settings: Pseudomonas aeruginosa; P. aeruginosa strain 762, 2 hours at 37° C., colonies counted
Protocol: Incubation of bacteria with the sphingosine analogs presented herein was carried out as follows. P. aeruginosa strain 762 was grown in LB medium at 37° C. until the early logarithmic phase (OD550 of 0.2). Bacteria were diluted in PBS (without Ca^+2 and Mg^+2) to a concentration of 5×10^3 CFU/ml. Stock solutions of sphingolipid analogs in 5 mM in 7.5% n-octyl-β-D-glucopyranoside (OGP) or in dimethyl sulfoxide (DMSO) were prepared by sonication and warming to 40° C. The sphingosine analogs presented herein were added to the bacteria (0.05-200 μM in 0.075% OGP or 1% DMSO). Bacteria were incubated with the sphingosine analogs presented herein for 2 hours at 37° C., and 200 μl of a bacteria solution plated on LB agar plates, incubated overnight at 37° C., and colonies counted.
The ability of the sphingo sine analogs presented herein to kill Pseudomonas aeruginosa in vitro, and based on the data shown below, concluded that the SPH analogs presented herein are highly efficient in killing bacteria. Compounds 791598 and 791577 were used as activity assay control references.
FIGS. 1A-D present comparative plots, showing the results of the P. aeruginosa strain 762 killing assay, conducted for sphingosine analogs presented herein.

[2] = target: T1, CerS5 (Homo sapiens (Human), UniProt Q8N5B7); assay: N-acylation by CerS5 using labeled palmitoyl CoA, relative to sphinganine; type: biochemical; settings: for Rate of N-Acylation / Rate of N-Acylation (either pmol/mg/min or % of control): CerS5, labeled palmitoyl CoA; for Rate of N-Acylation: n=1-2; for N-Acylation using 14C labeled palmitoyl CoA: Yes/No, CerS5; for Rate of N-Acylation (% of control): control sphinganine = 100% acylation; for Rate of N-Acylation (either pmol/mg/min or % of control): unit not given
Protocol: (§1) N-acylation was determined by incubating homogenates with 15 μM dhSo, 20 μM defatted BSA and 0.01 uCi C16-[14C] acyl-CoA/46 μM C16 acyl-CoA in a final volume of 250 μl.
An additional assay determined whether the sphingosine analogs presented herein are N-acylated by CerS5 expressed, relative to sphinganine (control; 100% acylation), using labeled palmitoyl CoA (n=1-2).

[3] = target: T1, CerS5; assay: Inhibition of ceramide synthesis (CerS5) measured in vitro; type: biochemical
Protocol: (§2) Ceramide synthase assays were carried out as follows. Cell homogenates were incubated with 15 μM NBD-SPH, 20 μM defatted bovine serum albumin, and 50 μM fatty acyl CoA in a 20 μl reaction volume at 37° C. Reactions were terminated by addition of chloroform/methanol (1:2, v/v) and lipids extracted. Lipids were dried under N2, re-suspended in chloroform/methanol (9:1, v/v) and separated by TLC using chloroform/methanol/2M NH4OH (40:10:1, v/v/v) as the developing solvent. NBD-labelled lipids were visualized using a Typhoon 9410 variable mode imager and quantified by ImageQuantTL (GE Healthcare, Chalfont St Giles, UK).

[4] = target: T1, CerS5; assay: CerS5 activity/inhibition assay using NBD sphinganine; type: biochemical; settings: read-out: CerS5 activity (percentage of control); for remaining activity at 25 µM: 25 μM compound; for remaining activity at 50 µM: 50 μM compound; for remaining activity at 75 µM: 75 μM compound
Protocol: as §2
Table 4 below presents the results for the CerS5 activity/inhibition assay using NBD sphinganine (given as percentage of control).

[5] = test system: ceramide synthases (CerS); assay: N-acylation by ceramide synthases using 14C labeled CoA; type: biochemical; settings: 14C labeled CoA as a substrate; raw data not shown
Protocol: as §1
To determine whether the sphingosine analogs presented herein can be metabolized by ceramide synthases (CerS—natural sphingosine is a substrate for CerS), their N-acylation using ^14C labeled CoA as a substrate was examined.

[6] = test system: P. aeruginosa; settings: injected immediately prior to infection, or an hour after infection; cited from earlier work

T1 sequence (Q8N5B7 whole entry, species assumed): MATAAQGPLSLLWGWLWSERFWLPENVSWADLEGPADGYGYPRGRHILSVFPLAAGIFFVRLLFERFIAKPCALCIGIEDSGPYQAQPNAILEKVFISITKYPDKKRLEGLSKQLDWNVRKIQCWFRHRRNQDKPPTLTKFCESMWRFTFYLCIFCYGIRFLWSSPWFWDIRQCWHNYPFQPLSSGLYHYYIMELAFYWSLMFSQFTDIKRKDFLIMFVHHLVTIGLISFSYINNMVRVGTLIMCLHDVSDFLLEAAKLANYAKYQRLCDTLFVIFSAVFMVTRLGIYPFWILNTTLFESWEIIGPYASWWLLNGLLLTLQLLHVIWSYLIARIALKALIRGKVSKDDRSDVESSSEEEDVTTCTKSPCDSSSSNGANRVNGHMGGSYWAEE

Row | Structure (SMILES) | EC50 [1] | Rate of N-Acylation [2] | N-Acylation using 14C labeled palmitoyl CoA [2] | Rate of N-Acylation (% of control) [2] | CerS5 activity (% of control) [3] | Rate of N-Acylation (either pmol/mg/min or % of control) [2] | remaining activity at 25 µM [4] | remaining activity at 50 µM [4] | remaining activity at 75 µM [4] | N-acylation by CerS (substrate or not) [5] | P. aeruginosa infection in CF mice [6]
1 | CCCCCCCCCCCCCCC[C@H](O)[C@H](CO)N(C)C [Compound 791577] | > 2500 nM | 4.7 ± 2.4 pmol/mg/min | No | (0.89% of control) | 92.9 ± 28.7 % of control | – | – | – | – | – | –
2 | CCCCCCCCCCCCCCC[C@H](O)[C@H](CN)N(C)C [Compound 791578] | 1440 ± 760 nM | 55.0 ± 6.0 pmol/mg/min | No | (10.39% of control) | 90.2 ± 16.4 % of control | – | – | – | – | – | –
3 | CCCCCCCCCCCCCCC[C@@H](N)[C@H](CN)N(C)C [Compound 791579] | 580 ± 140 nM | 4.1 ± 3.0 pmol/mg/min | No | (0.77% of control) | 69.2 ± 8.9 % of control | – | – | – | – | – | –
4 | CCCCCCCCCCCCCCC[C@H](N)[C@H](CN)N(C)C [Compound 791580] | 390 ± 60 nM | 6.1 ± 2.6 pmol/mg/min | No | (1.15% of control) | 58.1 ± 20.1 % of control | – | – | – | – | – | –
5 | CCCCCCCCCC/C=C/CCC(N)(O)CO (centres unmarked) [Compound 791581] | 1090 ± 310 nM | 4.2 ± 4.5 pmol/mg/min | No | (0.79% of control) | 71.5 ± 19.0 % of control | – | – | – | – | – | –
6 | CCCCCCCCCC/C=C/CCC(N)(N)CN [Compound 791582] | 540 ± 180 nM | 14.4 ± 7.7 pmol/mg/min | No | (2.72% of control) | 68.2 ± 10.4 % of control | – | – | – | – | – | –
7 | CCCCCCCCCCCCCCC[C@@H](O)[C@H](N)CN [Compound 791597] | 890 ± 230 nM | 18.8 ± 12.3 pmol/mg/min | No | (3.55% of control) | 125.0 ± 31.1 % of control | – | – | – | – | – | –
8 | CCCCCCCCCCCCCCC[C@H](N)[C@H](N)CN [Compound 791598] | 990 ± 10 nM | 10.4 ± 10.1 pmol/mg/min | No | (1.97% of control) | 111.3 ± 34.9 % of control | – | – | – | – | – | –
9 | CCCCCCCC/C=C\CCCCCCCC[C@@H](O)[C@H](N)CO [Compound 791601] | 420 ± 50 nM | 144.6 ± 51.7 pmol/mg/min | Yes | (27.32% of control) | 88.5 ± 10.1 % of control | – | – | – | – | – | –
10 | CCCCC/C=C\C/C=C\CCCCCCCC[C@H](O)[C@@H](N)CO [Compound 791602] | – | 146.9 ± 0.0 pmol/mg/min | Yes | (27.76% of control) | 57.3 ± 12.2 % of control | – | – | – | – | – | –
11 | CCCCCCCCCCCCCCNC(=O)[C@H](N)CN [Compound 791993] | 940 ± 322 nM | – | – | – | – | 0.98 ± 0.09 pmol/mg/min or % of control | – | – | – | – | –
12 | CCCCCCCCCCCCCCNC(=O)[C@@H](N)CN [Compound 791994] | 1310 ± 400 nM | – | Yes | – | – | 25.42 ± 6.97 pmol/mg/min or % of control | – | – | – | – | –
13 | CCCCCCCCCCCCc1ccc(NC(=O)[C@@H](N)CN)cc1 [Compound 791995] | 870 ± 91 nM | – | No | – | – | 0.14 ± 0.004 pmol/mg/min or % of control | 107 ± 24% | 119 ± 20.9% | 109 ± 26.9% | not substrates for CerS | –
14 | CCCCCCCCCCCCc1ccc(NC(=O)[C@H](N)CN)cc1 [Compound 791996] | 810 ± 240 nM | – | No | – | – | 0.02 ± 0.003 pmol/mg/min or % of control | 96.7 ± 12.8% | 104 ± 21.2% | 105 ± 13.9% | not substrates for CerS | –
15 | CCCCCCCCCCCCCCc1ccc(NC(=O)C(N)CN)cc1 (centres unmarked) [Compound 792205] | 610 ± 200 nM | – | No | – | – | 5.21 ± 1.33 pmol/mg/min or % of control | 98.5 ± 18.1% | 92.7 ± 19% | 59.4 ± 12.1% | – | –
16 | CCCCCCCCCCCCCCCCc1ccc(NC(=O)[C@@H](N)CN)cc1 [Compound 792206] | 1120 ± 180 nM | – | No | – | – | 3.78 ± 0.24 pmol/mg/min or % of control | 76.6 ± 12.8% | – | 125 ± 37.4% | – | –
17 | CCCCCCCCCCCCCCCCNC(=O)C(N)CN (centres unmarked) [Compound 792208] | 720 ± 260 nM | – | – | – | – | 2.81 ± 1.06 pmol/mg/min or % of control | 114 ± 21.4% | 81.9 ± 7.15% | 72.7 ± 5.76% | – | –
18 | CCCCCCCCCCCCCCCCCCNC(=O)C(N)CN (centres unmarked) [Compound 792209] | > 2500 nM | – | No | – | – | – | – | – | – | – | –
19 | CCCCCCCCCCCCc1ccc(NC(=O)C(O)CN)cc1 (centres unmarked) [Compound 792211] | 260 ± 90 nM | – | Yes | – | – | 114.21 ± 3.11 pmol/mg/min or % of control | 163 ± 37.9% | 73.5 ± 8.98% | 49.8 ± 26.6% | – | –
20 | CCCCCCCCCCCCc1ccc(NC(=O)[C@@H](N)CCN)cc1 [Compound 792212] | 160 ± 70 nM | – | No | – | – | 2.77 ± 0.65 pmol/mg/min or % of control | 163 ± 82.3% | 138 ± 59% | 119 ± 32.8% | – | –
21 | CCCCCCCCc1ccc(CCC(N)(CO)CO)cc1 [FTY720, fingolimod] | – | – | – | – | – | – | – | – | – | – | completely blocked
22 | CCCCCCCCCCCCCCC[C@@H](O)[C@@H](N)CO [sphinganine, reference compound] | – | – | – | – | 100 ± 0 % of control | – | – | – | – | – | –
23 | CCCCCCCCCCCCC/C=C/[C@@H](O)[C@@H](N)CO [sphingosine] | – | – | – | – | – | – | – | – | – | – | completely blocked
